Assay results reported in patent US12195439B1, “C1-substituted isopropylamine fused heterocyclic mescaline derivatives” (Enveric Biosciences Canada Inc., priority 2022, dated 2025).
pKi: −log10 of the molar value. Like-named read-outs stand apart in the source and are kept apart here.

How the values were obtained:
MT1 receptor = target: T1, MT1 receptor (Homo sapiens, UniProt P48039); assay: Eurofins Cerep competition binding assay at MT1 receptor
T1 construct: host or cells: CHO cells (membrane preparation)

5-HT7 receptor = target: T2, 5-HT7 receptor (Homo sapiens, UniProt P34969); assay: Eurofins Cerep competition binding assay at 5-HT7 receptor; conditions: 10 μM test ligand, [3H]LSD, recombinant receptor from HEK-293 cells; for inhibition at 10 µM: read-out: HT7, percent of control-specific binding
T2 construct: host or cells: HEK-293 cells (membrane preparation)

alpha2A receptor = target: T3, alpha2A receptor (Homo sapiens, UniProt P08913); assay: Eurofins Cerep competition binding assay at alpha2A receptor; conditions: 10 μM test ligand, [3H]RX 821002, recombinant receptor from CHO cells; for inhibition at 10 µM: read-out: α-2A, percent of control-specific binding
T3 construct: host or cells: CHO cells (membrane preparation)
T3 sequence (P08913 1-465): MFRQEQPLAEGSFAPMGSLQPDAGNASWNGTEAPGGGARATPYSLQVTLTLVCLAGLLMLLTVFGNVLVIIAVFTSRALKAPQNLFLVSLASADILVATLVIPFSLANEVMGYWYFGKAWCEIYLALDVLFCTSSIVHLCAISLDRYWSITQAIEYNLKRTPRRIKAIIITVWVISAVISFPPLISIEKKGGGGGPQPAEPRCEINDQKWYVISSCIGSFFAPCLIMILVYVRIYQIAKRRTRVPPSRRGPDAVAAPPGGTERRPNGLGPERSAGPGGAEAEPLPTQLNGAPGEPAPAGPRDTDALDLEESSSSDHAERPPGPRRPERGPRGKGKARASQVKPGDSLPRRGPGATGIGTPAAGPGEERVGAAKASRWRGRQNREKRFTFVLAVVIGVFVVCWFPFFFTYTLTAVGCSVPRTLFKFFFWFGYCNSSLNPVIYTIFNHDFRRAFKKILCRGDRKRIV

[1] = target: T4, dopamine transporter (DAT) (Homo sapiens, UniProt Q01959); assay: Eurofins Cerep competition binding assay at dopamine transporter; conditions: for inhibition at 10 µM: read-out: DAT, percent of control-specific binding, 10 μM test ligand, [3H]BTCP, recombinant transporter from CHO cells
T4 construct: host or cells: CHO cells (membrane preparation)

5-HT2B receptor = target: T5, 5-HT2B receptor (Homo sapiens, UniProt P41595); assay: Eurofins Cerep competition binding assay at 5-HT2B receptor; conditions: 10 μM test ligand, [3H]mesulergine, recombinant receptor from CHO cells; for inhibition at 10 µM: read-out: HT2B, percent of control-specific binding
T5 construct: host or cells: CHO cells (membrane preparation)

5-HT2C receptor = target: T6, 5-HT2C receptor (Homo sapiens, UniProt P28335); assay: Eurofins Cerep competition binding assay at 5-HT2C receptor; conditions: 10 μM test ligand, [125I](±)DOI, recombinant receptor from HEK-293 cells; read-out: HT2C, percent of control-specific binding
T6 construct: host or cells: HEK-293 cells (membrane preparation)
T6 sequence (P28335 33-458): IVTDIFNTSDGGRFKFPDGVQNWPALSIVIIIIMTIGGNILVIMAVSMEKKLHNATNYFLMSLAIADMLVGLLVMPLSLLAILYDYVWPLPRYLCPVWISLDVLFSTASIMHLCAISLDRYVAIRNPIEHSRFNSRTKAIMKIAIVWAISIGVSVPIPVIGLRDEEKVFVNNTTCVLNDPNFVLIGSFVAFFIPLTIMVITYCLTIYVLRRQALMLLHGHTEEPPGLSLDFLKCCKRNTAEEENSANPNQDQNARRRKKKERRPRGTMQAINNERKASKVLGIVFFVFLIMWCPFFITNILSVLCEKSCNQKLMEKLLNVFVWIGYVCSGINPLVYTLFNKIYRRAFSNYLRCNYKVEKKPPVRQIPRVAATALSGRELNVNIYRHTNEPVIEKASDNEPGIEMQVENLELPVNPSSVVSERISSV

5-HT1A receptor [2] = target: T7, 5-HT1A receptor (Homo sapiens, UniProt P08908); assay: Eurofins Cerep competition binding assay at 5-HT1A receptor; conditions: 10 μM test ligand, [3H]8-OH-DPAT, recombinant receptor from HEK-293 cells; for inhibition at 10 µM: read-out: HT1A, percent of control-specific binding
T7 construct: purchased Perkin Elmer 6110501400UA
T7 sequence (P08908 1-422): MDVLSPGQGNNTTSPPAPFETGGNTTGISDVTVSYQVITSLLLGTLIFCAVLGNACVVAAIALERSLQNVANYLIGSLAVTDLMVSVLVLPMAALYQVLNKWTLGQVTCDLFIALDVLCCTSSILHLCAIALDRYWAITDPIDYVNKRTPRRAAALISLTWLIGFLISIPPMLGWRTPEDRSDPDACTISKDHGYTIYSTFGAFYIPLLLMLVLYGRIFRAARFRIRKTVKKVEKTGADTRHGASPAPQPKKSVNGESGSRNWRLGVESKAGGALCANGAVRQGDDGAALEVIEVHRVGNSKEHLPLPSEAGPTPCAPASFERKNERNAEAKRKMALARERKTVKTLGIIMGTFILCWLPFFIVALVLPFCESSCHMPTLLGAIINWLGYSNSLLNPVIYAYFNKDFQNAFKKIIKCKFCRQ

[3] = target: T8, norepinephrine transporter (NET) (Homo sapiens, UniProt P23975); assay: Eurofins Cerep competition binding assay at norepinephrine transporter; conditions: for inhibition at 10 µM: read-out: NET, percent of control-specific binding, 10 μM test ligand, [3H]nisoxetine, recombinant transporter from CHO cells
T8 construct: host or cells: CHO cells (membrane preparation)

[4] = target: T9, serotonin transporter (SERT) (Homo sapiens, UniProt P31645); assay: biochemical; assay type: binding; conditions: for inhibition at 10 µM: read-out: SERT, percent of control-specific binding
T9 construct: host or cells: CHO cells (membrane preparation)

5-HT1A receptor [5] = target: T7, 5-HT1A receptor; assay: 5-HT1A receptor radioligand competition assay (SPA); assay type: binding; conditions: 5-HT1A, Ki, competition with 0.5 nM [3H]8-hydroxy-DPAT, membranes containing 5-HT1A
[6] = read-out: MT1, percent of control-specific binding, 10 μM test ligand, [125I]2-iodomelatonin, recombinant receptor from CHO cells
[7] = read-out: MT1, percent of control-specific binding

T8 sequence (P23975 whole entry): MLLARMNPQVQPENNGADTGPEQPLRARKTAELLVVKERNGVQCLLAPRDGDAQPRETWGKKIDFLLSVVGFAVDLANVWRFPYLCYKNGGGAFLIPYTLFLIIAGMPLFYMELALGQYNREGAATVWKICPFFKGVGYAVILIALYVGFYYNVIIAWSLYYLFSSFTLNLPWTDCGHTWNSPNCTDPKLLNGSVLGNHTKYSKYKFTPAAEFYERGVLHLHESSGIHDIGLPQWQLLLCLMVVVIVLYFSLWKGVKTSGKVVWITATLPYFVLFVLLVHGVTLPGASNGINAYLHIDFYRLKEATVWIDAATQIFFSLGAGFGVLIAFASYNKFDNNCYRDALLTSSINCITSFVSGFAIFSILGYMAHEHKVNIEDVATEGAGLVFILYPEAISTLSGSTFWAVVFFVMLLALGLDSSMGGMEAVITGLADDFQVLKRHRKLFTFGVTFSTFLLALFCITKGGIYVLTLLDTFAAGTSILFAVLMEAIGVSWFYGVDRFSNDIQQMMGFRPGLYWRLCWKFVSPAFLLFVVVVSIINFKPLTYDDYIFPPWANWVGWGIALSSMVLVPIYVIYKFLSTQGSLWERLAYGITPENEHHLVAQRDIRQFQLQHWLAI
T4 sequence (Q01959 whole entry): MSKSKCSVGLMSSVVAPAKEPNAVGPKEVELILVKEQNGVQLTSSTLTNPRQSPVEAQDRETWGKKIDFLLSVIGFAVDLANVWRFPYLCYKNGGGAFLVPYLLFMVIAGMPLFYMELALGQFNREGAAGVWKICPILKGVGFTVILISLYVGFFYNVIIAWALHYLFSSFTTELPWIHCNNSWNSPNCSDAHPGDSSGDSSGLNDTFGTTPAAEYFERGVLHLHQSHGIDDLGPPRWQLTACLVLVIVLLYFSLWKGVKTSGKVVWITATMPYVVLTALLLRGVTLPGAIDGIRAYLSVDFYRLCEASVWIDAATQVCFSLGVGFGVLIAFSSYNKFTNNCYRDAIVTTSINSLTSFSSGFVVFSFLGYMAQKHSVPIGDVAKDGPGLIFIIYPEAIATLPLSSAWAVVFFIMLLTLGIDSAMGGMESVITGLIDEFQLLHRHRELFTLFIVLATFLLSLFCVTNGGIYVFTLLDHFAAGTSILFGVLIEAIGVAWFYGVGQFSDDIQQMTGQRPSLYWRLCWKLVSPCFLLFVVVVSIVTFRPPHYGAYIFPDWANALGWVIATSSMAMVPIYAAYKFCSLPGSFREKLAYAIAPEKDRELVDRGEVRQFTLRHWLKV
T5 sequence (P41595 whole entry): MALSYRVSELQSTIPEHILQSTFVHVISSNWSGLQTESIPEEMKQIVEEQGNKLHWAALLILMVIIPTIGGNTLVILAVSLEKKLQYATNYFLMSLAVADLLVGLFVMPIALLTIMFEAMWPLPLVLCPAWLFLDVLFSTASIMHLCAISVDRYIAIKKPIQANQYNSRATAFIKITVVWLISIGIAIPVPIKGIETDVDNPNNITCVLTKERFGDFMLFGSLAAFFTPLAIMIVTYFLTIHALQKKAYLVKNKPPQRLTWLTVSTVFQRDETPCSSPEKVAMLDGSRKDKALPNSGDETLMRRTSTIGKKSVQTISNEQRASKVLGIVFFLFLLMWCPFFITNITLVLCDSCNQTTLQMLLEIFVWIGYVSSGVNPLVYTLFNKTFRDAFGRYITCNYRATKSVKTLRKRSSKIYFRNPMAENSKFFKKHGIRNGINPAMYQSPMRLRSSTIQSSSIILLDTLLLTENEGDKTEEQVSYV
T1 sequence (P48039 whole entry): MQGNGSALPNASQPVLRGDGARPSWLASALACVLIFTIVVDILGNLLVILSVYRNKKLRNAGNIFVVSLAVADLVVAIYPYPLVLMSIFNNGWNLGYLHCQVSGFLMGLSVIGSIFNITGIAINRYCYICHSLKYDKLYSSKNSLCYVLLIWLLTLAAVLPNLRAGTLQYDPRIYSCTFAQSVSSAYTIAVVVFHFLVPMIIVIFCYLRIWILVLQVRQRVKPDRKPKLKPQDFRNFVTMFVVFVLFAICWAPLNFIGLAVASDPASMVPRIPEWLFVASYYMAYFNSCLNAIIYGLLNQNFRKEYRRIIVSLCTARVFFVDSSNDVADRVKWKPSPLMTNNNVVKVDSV
T9 sequence (P31645 whole entry): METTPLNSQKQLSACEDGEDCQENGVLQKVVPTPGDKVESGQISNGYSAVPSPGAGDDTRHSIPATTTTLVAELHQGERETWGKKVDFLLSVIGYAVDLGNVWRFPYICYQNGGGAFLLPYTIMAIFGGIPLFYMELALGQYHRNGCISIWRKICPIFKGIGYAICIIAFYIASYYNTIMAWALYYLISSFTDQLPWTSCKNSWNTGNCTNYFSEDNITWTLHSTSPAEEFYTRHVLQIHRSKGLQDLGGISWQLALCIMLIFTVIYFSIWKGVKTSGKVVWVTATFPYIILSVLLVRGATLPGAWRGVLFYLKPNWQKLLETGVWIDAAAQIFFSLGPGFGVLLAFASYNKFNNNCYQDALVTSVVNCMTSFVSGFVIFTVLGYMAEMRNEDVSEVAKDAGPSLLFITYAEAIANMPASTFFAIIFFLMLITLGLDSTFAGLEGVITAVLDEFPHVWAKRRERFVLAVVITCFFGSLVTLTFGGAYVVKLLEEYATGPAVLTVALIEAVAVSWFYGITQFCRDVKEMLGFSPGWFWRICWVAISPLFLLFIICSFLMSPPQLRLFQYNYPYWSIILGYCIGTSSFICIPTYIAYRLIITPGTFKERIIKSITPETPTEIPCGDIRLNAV
T2 sequence (P34969 whole entry): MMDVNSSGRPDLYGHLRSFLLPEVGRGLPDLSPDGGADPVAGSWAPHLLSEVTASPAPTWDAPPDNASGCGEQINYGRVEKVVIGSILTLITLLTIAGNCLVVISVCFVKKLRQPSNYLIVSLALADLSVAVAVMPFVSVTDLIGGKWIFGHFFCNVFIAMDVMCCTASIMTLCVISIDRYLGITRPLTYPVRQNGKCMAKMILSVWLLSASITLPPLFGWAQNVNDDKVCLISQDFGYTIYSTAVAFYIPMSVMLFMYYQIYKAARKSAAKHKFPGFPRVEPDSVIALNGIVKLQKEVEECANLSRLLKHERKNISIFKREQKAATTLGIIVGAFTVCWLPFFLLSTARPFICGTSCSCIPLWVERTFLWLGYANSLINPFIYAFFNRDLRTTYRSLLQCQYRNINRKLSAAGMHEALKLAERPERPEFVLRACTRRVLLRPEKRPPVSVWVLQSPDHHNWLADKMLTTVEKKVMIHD

Row | SMILES | inhibition at 10 µM (MT1 receptor; [6]) [%] | inhibition at 10 µM (5-HT7 receptor) [%] | inhibition at 10 µM (alpha2A receptor) [%] | inhibition at 10 µM [1] [%] | inhibition at 10 µM (5-HT2B receptor) [%] | inhibition at 10 µM (5-HT2C receptor) [%] | inhibition at 10 µM (5-HT1A receptor [2]) [%] | inhibition at 10 µM [3] [%] | inhibition at 10 µM [4] [%] | also measured
1 | CC(NC(C)(C)C)C(=O)c1cccc(Cl)c1 (centres unmarked) [Bupropion, bupropion] | 83 | 4 | 2 | 92 | -2 | 1 | -1 |  |  | 
2 | N#Cc1ccc2[nH]cc(CCCCN3CCN(c4ccc5oc(C(N)=O)cc5c4)CC3)c2c1 [Vilazodone, vilazodone] | 84 | 83 | 65 | 98 | 96 | 92 | 99 | 99 | 100 | 
3 | CN(C)CCCN1c2ccccc2CCc2ccccc21 [Imipramine, imipramine] | 29 | 93 | 57 | 23 | 94 | 98 | 34 | 99 | 98 | 
4 | CNCC[C@H](Oc1cccc2ccccc12)c1cccs1 [Duloxetine, duloxetine] | 23 |  | 54 |  | 95 | 92 | 95 |  |  | 
5 | Cc1ccc(Sc2ccccc2N2CCNCC2)c(C)c1 [vortioxetine] | 26 | 100 | 62 | 90 | 97 | 99 |  | 99 | 101 | 
6 | COc1cc(CC(C)N)c(OC)cc1Br (centres unmarked) [DOB] |  |  |  |  |  |  |  |  |  | NET, percent of control-specific binding ([3]; 10 μM test ligand, [3H]nisoxetine, recombinant transporter from CHO cells): 6%; SERT, percent of control-specific binding ([4]; 10 µM): 53%; MT1, percent of control-specific binding (MT1 receptor; 10 μM test ligand, [125I]2-iodomelatonin, recombinant receptor from CHO cells): −3%; HT7, percent of control-specific binding (5-HT7 receptor): 65%; α-2A, percent of control-specific binding (alpha2A receptor): 66%; DAT, percent of control-specific binding ([1]; 10 μM test ligand, [3H]BTCP, recombinant transporter from CHO cells): 3%; HT2B, percent of control-specific binding (5-HT2B receptor): 97%; HT1A, percent of control-specific binding (5-HT1A receptor [2]): 75%
7 | NCCc1c[nH]c2ccc(O)cc12 [serotonin] | 7 | 100 | 18 | 8 |  |  | 100 | -3 |  | 
8 | C[S+](C)[O-] [DMSO, dimethylsulfoxide] |  |  |  |  |  |  |  |  |  | pKi (5-HT1A receptor [5]): < 3.00
9 | COc1ccc2cccc(CCNC(C)=O)c2c1 [Agomelatine, agomelatine] |  | 20 | 2 | 1 | 93 | 92 | 58 | 1 | 30 | inhibition at 10 µM (MT1 receptor; [7]): 99%
10 | O=c1n(CCCN2CCN(c3cccc(Cl)c3)CC2)nc2ccccn12 [Trazodone, trazodone] | 14 | 99 | 91 | 24 | 97 | 93 | 97 | -1 |  | 
11 | CC(NCc1ccccc1)C(C)c1ccc2c(c1)OCO2 (centres unmarked) [Ex(VI) as diast. (xi) and (xii)] |  |  |  |  |  |  |  |  |  | pKi (5-HT1A receptor [5]): 4.18
12 | CC(C(O)c1ccc2c(c1)OCO2)N(C)Cc1ccccc1 (centres unmarked) [B(III) as diast. (iv)] |  |  |  |  |  |  |  |  |  | pKi (5-HT1A receptor [5]): 4.77
13 | COc1ccc2[nH]cc(CCNC(C)=O)c2c1 [Melatonin, melatonin] |  | 8 | -7 | 4 | 52 | 19 | 46 | -2 |  | inhibition at 10 µM (MT1 receptor; [7]): 98%
